Test results reported in patent US9012454B2, “Sexual dysfunction” (Mayo Foundation for Medical Education and Research, priority 2005, dated 2015).

Experiments:
[1] = tested on: surgical infarct model of CHF; experiment: Transthoracic echocardiography in surgical infarct (LAD ligation) model of CHF; type: in vivo, rat; conditions: for fractional shortening (FS): 4 weeks after surgery, captopril 100 mg/kg/day or prazosin 2 mg/kg/day, mean±SEM
Description: Adult male Sprague-Dawley rats (Harlan, Indianapolis, Ind.) weighing 400-450 grams were put under general anesthesia by intraperitoneal injection with a mixture (3:3:2) of ketamine (100 mg/mL), xylazine (20 mg/mL), and acepromazine (10 mg/mL). After intubation, the rats were ventilated continuously (room air) using a small animal ventilator (model 683, Harvard Apparatus, Holliston, Mass.). A left lateral thoracotomy incision was made along the 5th intercostal space. After the pericardium was opened, the heart was exteriorized using a retention suture placed at the apex. The left anterior descending coronary artery (LAD) was ligated twice using 6-0 prolene suture (Ethicon, Piscataway, N.J.). After chest closure with running 3-0 vicryl suture (Ethicon), rats were placed in a recovery chamber with a heating pad and a warming light.
Beginning on post-operative day one, rats were allowed to drink ad libitum. One group was fed water with captopril (2 g/L), and another group was fed water alone (Pfeffer et al., Circ. Res., 57:84-95 (1985)). The rats were fed a standard diet of Teklad rodent feed (Harlan) ad libitum and kept on a 12:12 hour light-dark cycle. In both the captopril- and the placebo-treated group, the rats were sacrificed at designated time intervals of 2 weeks and then 4, 6, and 8 weeks after surgery. On average, the rats drank approximately 20 mL of water daily, which corresponded to a dose of 100 mg/kg/day of captopril.
All rats in the placebo- and captopril-treated groups underwent transthoracic echocardiography (Acuson Sequoia C256® Echocardiography System, Siemens Medical Solutions USA, Inc., Malvern, Pa.) at baseline prior to LAD ligation and at 2, 4, 6, and 8 weeks after LAD ligation using 2-D digital loop imaging under conscious sedation with vaporized isoflurane as described previously (Karim et al., Circ. Res., 95:612-18 (2004); Morgan et al., Am. J. Physiol. Heart Circ. Physiol., 287:H2049-H2053 (2004)). […] Both parasternal long and short axis views were obtained using a 13-MHz linear array transducer. Digital calipers were used to measure end systolic dimension (ESD) and end diastolic dimension (EDD). Cardiac function was estimated using fractional shortening (FS) obtained from the EDD and ESD in the parasternal long axis view and calculated as FS=((EDD−ESD)/EDD)×100%.
The echocardiographic data were reported as mean±SEM.

[2] = tested on: LZ+ MYPT1 isoform; experiment: Western blot of relative LZ+ MYPT1 isoform expression in vascular smooth muscle after LAD ligation; type: in vivo, rat; conditions: for LZ+ MYPT1 isoform expression in aorta (in words) / LZ+ MYPT1 isoform expression in iliac artery (in words): captopril 2-8 weeks, prazosin 4 weeks

Row | SMILES | effect on fractional shortening / left ventricular function (LVF) ([1]; infarct rats versus placebo, captopril as early as 2 weeks post-infarction, prazosin at 4 weeks) | fractional shortening (FS) ([1]; infarct rats) | end systolic dimension (ESD) compared to placebo ([1]; infarct rats, all time-points (2, 4, 6, 8 weeks), P<0.05) | LZ+ MYPT1 isoform expression in aorta (in words) ([2]; infarct rats, aorta) | LZ+ MYPT1 isoform expression in iliac artery (in words) ([2]; infarct rats, iliac artery) | LZ+ MYPT1 isoform expression in portal vein (in words) ([2]; infarct rats, portal vein, all time intervals) | LZ+ MYPT1 isoform expression in the aorta (fall versus uninfarcted control) ([2]; aorta, 4 weeks after infarction, placebo 44±1%, P<0.05) | LZ+ MYPT1 isoform expression in the iliac artery (fall versus uninfarcted control) ([2]; iliac artery, 4 weeks after infarction, placebo 52±2%, P=0.87)
1 | C[C@H](CS)C(=O)N1CCC[C@H]1C(=O)O [captopril] | attenuated the fall in FS and improved left ventricular function | 45±1% | reduced the ESD | preserved at the uninfarcted control level | preserved at the level of the uninfarcted control smooth muscle | remained low | – | –
2 | COc1cc2nc(N3CCN(C(=O)c4ccco4)CC3)nc(N)c2cc1OC [prazosin] | – | 38±2% | – | did not prevent the fall | did not prevent the fall | – | 68±1% | 54±2%
